Values of other authors, collected in publication PMC8481536, “Wells–Dawson phosphotungstates as mushroom tyrosinase inhibitors: a speciation study” (Scientific Reports, 2021).

Target: T1, AbPPO4 (Agaricus bisporus, UniProt C7FF05, S179N/V121A)
T1 construct: GST (glutathione-S-transferase) (N, cleaved yes); made in house; host or cells: E. coli BL21(DE3)
Conditions: cited from earlier work

T1 sequence (C7FF05 1-383 V121A/S179N): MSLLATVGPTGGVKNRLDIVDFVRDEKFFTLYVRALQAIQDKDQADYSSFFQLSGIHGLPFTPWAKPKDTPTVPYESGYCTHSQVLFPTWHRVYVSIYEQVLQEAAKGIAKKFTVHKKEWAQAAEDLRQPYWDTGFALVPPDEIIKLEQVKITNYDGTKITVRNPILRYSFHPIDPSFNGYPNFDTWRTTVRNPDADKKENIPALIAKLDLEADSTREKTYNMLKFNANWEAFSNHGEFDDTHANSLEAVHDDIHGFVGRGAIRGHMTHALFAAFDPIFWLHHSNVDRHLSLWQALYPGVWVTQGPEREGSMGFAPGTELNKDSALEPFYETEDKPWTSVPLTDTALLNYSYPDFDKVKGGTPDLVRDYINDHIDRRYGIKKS

In the case of N[C@@H](Cc1ccc(O)c(O)c1)C(=O)O [L-DOPA, L-3,4−dihydroxyphenylalanine], the Km is given as 26.1 mM.
